Measured values: patent publication US12415785B2, “Compound modulators of sting” (CTXT PTY LTD, priority 2019, dated 2025)
Like-named read-outs stand apart in the source and are kept apart here.

How the values were obtained:
[1] = target: human HAQ isoform of STING (THP-1 STING Lucia ISG cells) (Homo sapiens (Human), UniProt Q86WV6, G230A/H232R/R293Q/R71H); experiment: THP-1 STING Lucia ISG reporter cell line assay; type: cell-based; conditions: 24 h incubation, QUANTI-Luc luminescence
Protocol: (§1) THP-1 STING Lucia ISG cells (InvivoGen #thpI-isg) were cultured in RPMI-1640 containing 2 mM L-glutamine, 25 mM HEPES, 100 μg/mL Normocin (InvivoGen) and 10% heat-inactivated FBS. Cells were seeded at a density of 7×10^5 cells/mL, maintained at 37° C./5% CO2, and passaged every 3-4 days. Selection pressure was maintained by the addition of 100 μg/mL Zeocin every second passage.
(§2) Assay conditions: cells were harvested and resuspended at a concentration of 5×10^5 cells/mL in fresh growth media. Of this cell preparation 20 μL per well was dispensed into 384 well cell culture plates (Greiner, #781098X) and incubated at 37° C./5% CO2 for 2 hours. Concentration Response Curves (commonly 11 doses) were prepared by 2.5 fold serial dilution starting from 10 mM compound stock solution in DMSO. Compound dilutions were transferred into the cell culture plates using a pintool (0.1 μL transfer), control wells were matched for DMSO. Positive control wells received ML RR—S2 CDA (Med Chem Express HY12885B) in 5 μL of media to a final concentration of 40 μM. All other wells received additional 5 μL of media only to equalise volume. The plates were incubated for 24 h at 37° C./5% CO2.
(§3) For the detection step, QUANTI-Luc (InvivoGen #rep-qlc1) was prepared according to manufacturer's instruction and 10 μL were added per well to the culture plates. Plates were shaken for ten seconds on an orbital shaker and left in the dark at room temperature for two minutes, before luminescence was read on a Perkin Elmer Envision plate reader.
(§4) Data analysis: Luminescence raw data was normalised % activity relative to the signal of the positive control wells and negative control wells which were not treated with compound. The following formula was used to calculate normalised % activity from raw signals: % activity=(sample−negative)/(positive−negative)
(§5) The THP-1 STING Lucia ISG cell EC50 provides an assessment of activity at the human HAQ isoform of STING. For assessing compound activity against the WT human STING isoform, an equivalent method was conducted where the cells used were THP-1-Dual KI-hSTING-R232 (InvivoGen #thpd-r232).

[2] = target: WT human STING isoform (THP-1-Dual KI-hSTING-R232 cells) (Homo sapiens (Human), UniProt Q86WV6, H232R); experiment: THP-1-Dual KI-hSTING-R232 reporter cell line assay; type: cell-based; conditions: 24 h incubation, QUANTI-Luc luminescence
Protocol: as §1, §2, §3, §4, §5

[3] = target: human STING (WT) (Homo sapiens (Human), UniProt Q86WV6, H232R); experiment: Differential scanning fluorimetry (DSF), huSTING (WT); type: binding; conditions: for ΔTm at 100 µM: read-out: DSF huSTING (WT) ΔTm (° C.)
Protocol: (§6) Biophysical experiments were performed with three different recombinant human STING protein variants designated according to allelic nomenclature of Yi et al., (2013). […] These were ligated into a modified pET43a E. coli expression vector designed to encode N-terminal His tag followed by tobacco etch virus protease (TEV) cleavage site and a STING gene sequence. The resulting protein sequences for the three allelic variants are listed below: […] Cultures were then cooled to 16° C. and protein expression induced by the addition of isopropyl β-D-1-thiogalactopyranoside to a final concentration of 0.5 mM and the cultures shaken overnight for further 16 hours. Following expression, cell cultures were centrifuged at 5000×g for 20 min and cell pellet stored frozen at −70° C. Protein purification was initiated by thawing the cell pellet in Lysis buffer (25 mM Tris-HCl pH 8.0, 300 mM NaCl, 5 mM DTT, 2 mM MgCl2, 10 mM imidazole, 0.5 mg/ml lysozyme, benzonase endonuclease [EMD Millipore], 1 mM PMSF, complete protease inhibitor tablets EDTA-free [Roche]) using a ratio of 7 ml of buffer per 1 g of cells. Cells were further lysed by 3 passes through an ice cooled Avestin C5 cell crusher and then centrifuged at 48,000×g at 4° C. […] The IMAC column was then sequentially washed with IMAC Wash buffer 1 and IMAC Wash buffer 2 (25 mM Tris-HCl pH 8.0, 300 mM NaCl, 5 mM DTT, 20 mM Imidazole) and bound His-TEV-hSTING protein eluted with IMAC Elution buffer (25 mM Tris-HCl pH 8.0, 300 mM NaCl, 5 mM DTT, 250 mM Imidazole). […] Differential scanning fluorimetry (DSF) is a rapid screening method for identifying low-molecular-weight ligands that bind and, in doing so, stabilize (or sometimes destabilize) purified proteins (Niesen 2007). DSF monitors thermal unfolding of protein in the presence of a fluorescent dye and is typically performed using a real-time PCR instrument. The temperature at which a protein unfolds is measured by an increase in the fluorescence of a dye with affinity for hydrophobic parts of the protein that are gradually being exposed during unfolding. The fluorescence of the dye is quenched in aqueous environments, but when the dye associates with hydrophobic sites on unfolded protein, its fluorescence increases. The fluorescence intensity is plotted as a function of the temperature, generating a sigmoidal curve that can be described by a two-state transition. The inflection point of the transition curve (Tm) is calculated using simple equations such as that of Boltzmann. Thermal stability of STING protein (with and without bound ligand) was measured using previously described methodology (Seabrook & Newman, 2013), with samples tested in triplicate using 96-well PCR microplate (AB Gene, ABGAB-0600/W). […] Sealed plates were placed into Bio-Rad CFX96/C1000 thermocycler and FRET scanning mode (λ^excitation of 490 nm and reads at a λ^emission of 570 nm). Melting curves were recorded from 20° C. to 100° C. in 0.5° C. increments every 30 seconds with a read at each increment. Data were analysed using “Meltdown analysis” protocol described by Rosa (2015).

[4] = test system: human STING (HAQ); experiment: Differential scanning fluorimetry (DSF), huSTING (HAQ); type: binding; conditions: 2 μM protein, compound 100 μM; Tm with ligand minus Tm of protein alone (1% DMSO)
Protocol: as §6

[5] = target: human STING (HAQ) (Homo sapiens, UniProt Q86WV6, G230A/H232R/R293Q); experiment: as above; type: binding; conditions: read-out: DSF huSTING (HAQ) ΔTm (° C.)
Protocol: as §6

[6] = 2 μM protein, compound 100 μM, Tm with ligand minus Tm of protein alone (1% DMSO)

Sequence of human STING (WT) (Q86WV6 other isoform, or with tags, fused parts or gaps, stated change not applied): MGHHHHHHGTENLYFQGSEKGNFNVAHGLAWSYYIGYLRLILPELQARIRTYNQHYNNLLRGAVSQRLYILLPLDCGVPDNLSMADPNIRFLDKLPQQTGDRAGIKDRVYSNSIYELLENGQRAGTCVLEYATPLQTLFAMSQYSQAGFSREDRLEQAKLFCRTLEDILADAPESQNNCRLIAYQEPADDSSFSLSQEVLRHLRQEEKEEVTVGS
Sequence of WT human STING isoform (THP-1-Dual KI-hSTING-R232 cells) (Q86WV6 whole entry H232R, canonical isoform): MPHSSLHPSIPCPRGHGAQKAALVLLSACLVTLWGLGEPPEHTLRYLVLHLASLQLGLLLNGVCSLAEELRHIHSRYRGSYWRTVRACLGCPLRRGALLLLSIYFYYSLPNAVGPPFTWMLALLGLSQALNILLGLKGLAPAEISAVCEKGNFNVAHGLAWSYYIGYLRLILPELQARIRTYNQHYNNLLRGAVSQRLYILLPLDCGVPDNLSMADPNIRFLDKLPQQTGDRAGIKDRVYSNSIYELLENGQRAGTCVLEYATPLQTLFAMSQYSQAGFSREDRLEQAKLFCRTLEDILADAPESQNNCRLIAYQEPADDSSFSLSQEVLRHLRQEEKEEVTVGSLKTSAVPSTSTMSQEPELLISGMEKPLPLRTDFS
Sequence of human HAQ isoform of STING (THP-1 STING Lucia ISG cells) (Q86WV6 whole entry R71H/G230A/H232R/R293Q, canonical isoform): as the sequence (Q86WV6 whole entry H232R, canonical isoform) above, with R71H, G230A, R293Q counted along it
Sequence of human STING (HAQ) (Homo sapiens, UniProt Q86WV6, G230A/H232R/R293Q) (Q86WV6 whole entry G230A/H232R/R293Q, looked up): as the sequence (Q86WV6 whole entry H232R, canonical isoform) above, with G230A, R293Q counted along it

SMILES | EC50 [1] [µM] | EC50 [2] [µM] | DSF huSTING (WT) ΔTm (° C.) [3, 6] [°C] | DSF huSTING (HAQ) ΔTm (° C.) [4] [°C] | ΔTm at 100 µM [3, 6] [°C] | ΔTm at 100 µM [5, 6] [°C] | ΔTm at 100 µM [3] [°C] | ΔTm at 100 µM [5] [°C]
COc1c(C(N)=O)ccc2c1nc(-c1c(I)cccc1C(=O)O)n2CCn1c(-c2c(I)cccc2C(=O)O)nc2c(OC)c(C(N)=O)ccc21 (single isomer, unassigned) [Example 19.2, 2,2′-(Ethane-1,2-diylbis(5-carbamoyl-4-methoxy-1H-benzo[d]imidazole-1,2-diyl))bis(3-iodobenzoic acid)] | 14.9 | 11.7 | 6.58 | 21.66 | – | – | – | –
NC(=O)c1ccc2c(c1)nc(-c1c(Br)cccc1C(=O)O)n2CCn1c(-c2c(Br)cccc2C(=O)O)nc2cc(C(N)=O)ccc21 (single isomer, unassigned) [Example 29.2, 2,2′-(Ethane-1,2-diylbis(5-carbamoyl-1H-benzo[d]imidazole-1,2-diyl))bis(3-bromobenzoic acid)] | > 40 | > 40 | −6.70 | −5.65 | – | – | – | –
COc1c(C(N)=O)ccc2c1nc(-c1cc(Cl)ccc1C(=O)O)n2CCn1c(-c2cc(Cl)ccc2C(=O)O)nc2c(OC)c(C(N)=O)ccc21 [Example 7, 2,2′-(Ethane-1,2-diylbis(5-carbamoyl-4-methoxy-1H-benzo[d]imidazole-1,2-diyl))bis(4-chlorobenzoic acid)] | 1.55 | 1.43 | – | – | -2.49 | 5.88 | – | –
COc1c(C(N)=O)ccc2c1nc(-c1cc(Cl)c(Cl)cc1C(=O)O)n2CCn1c(-c2cc(Cl)c(Cl)cc2C(=O)O)nc2c(OC)c(C(N)=O)ccc21 [Example 8, 6,6′-(Ethane-1,2-diylbis(5-carbamoyl-4-methoxy-1H-benzo[d]imidazole-1,2-diyl))bis(3,4-dichlorobenzoic acid)] | 0.54 | 0.426 | – | – | – | – | 6.38 | 23.2
COc1c(C(N)=O)ccc2c1nc(-c1c(C(=O)O)ccc(Cl)c1F)n2CCn1c(-c2c(C(=O)O)ccc(Cl)c2F)nc2c(OC)c(C(N)=O)ccc21 [Example 12, 2,2′-(Ethane-1,2-diylbis(5-carbamoyl-4-methoxy-1H-benzo[d]imidazole-1,2-diyl))bis(4-chloro-3-fluorobenzoic acid)] | 2.65 | 2.55 | – | – | 4.56 | 28.3 | – | –
COC(=O)c1cc(Br)ccc1-c1nc2c(OC)c(C(N)=O)ccc2n1CCn1c(-c2ccc(Br)cc2C(=O)OC)nc2c(OC)c(C(N)=O)ccc21 [Example 13, Dimethyl 6,6′-(ethane-1,2-diylbis(5-carbamoyl-4-methoxy-1H-benzo[d]imidazole-1,2-diyl))bis(3-bromobenzoate)] | > 40 | > 40 | – | – | – | – | – | –
COc1c(C(N)=O)ccc2c1nc(-c1ccc(Br)cc1C(=O)O)n2CCn1c(-c2ccc(Br)cc2C(=O)O)nc2c(OC)c(C(N)=O)ccc21 [Example 14, 6,6′-(Ethane-1,2-diylbis(5-carbamoyl-4-methoxy-1H-benzo[d]imidazole-1,2-diyl))bis(3-bromobenzoic acid)] | 1.31 | 1.99 | – | – | 4.74 | 9.15 | – | –
COc1c(C(N)=O)ccc2c1nc(-c1ccc(F)cc1C(=O)O)n2CCn1c(-c2ccc(F)cc2C(=O)O)nc2c(OC)c(C(N)=O)ccc21 [Example 27, 6,6′-(Ethane-1,2-diylbis(5-carbamoyl-4-methoxy-1H-benzo[d]imidazole-1,2-diyl))bis(3-fluorobenzoic acid)] | 11.3 | 10.5 | – | – | 2.62 | 6.17 | – | –
COc1c(C(N)=O)ccc2c1nc(-c1cc(F)ccc1C(=O)O)n2CCn1c(-c2cc(F)ccc2C(=O)O)nc2c(OC)c(C(N)=O)ccc21 [Example 28, 2,2′-(Ethane-1,2-diylbis(5-carbamoyl-4-methoxy-1H-benzo[d]imidazole-1,2-diyl))bis(4-fluorobenzoic acid)] | 12.6 | > 40 | – | – | -6.6 | -2.19 | – | –
NC(=O)c1ccc2c(c1)nc(-c1ccc(Cl)cc1C(=O)O)n2CCn1c(-c2ccc(Cl)cc2C(=O)O)nc2cc(C(N)=O)ccc21 [Example 39, 6,6′-(Ethane-1,2-diylbis(5-carbamoyl-1H-benzo[d]imidazole-1,2-diyl))bis(3-chlorobenzoic acid)] | > 40 | > 40 | – | – | -4.35 | 0.86 | – | –
COc1c(C(N)=O)ccc2c1nc(-c1ccc(Cl)cc1-c1nn[nH]n1)n2CCn1c(-c2c(F)cc(Cl)cc2C(=O)O)nc2c(OC)c(C(N)=O)ccc21 [Example 47, 2-(5-Carbamoyl-1-(2-(5-carbamoyl-2-(4-chloro-2-(2H-tetrazol-5-yl)phenyl)-4-methoxy-1H-benzo[d]imidazol-1-yl)ethyl)-4-methoxy-1H-benzo[d]imidazol-2-yl)-5-chloro-3-fluorobenzoic acid] | 0.497 | 0.549 | – | – | – | – | – | –
COc1c(C(N)=O)ccc2c1nc(-c1ccc(C#N)cc1C(=O)O)n2CCn1c(-c2ccc(C#N)cc2C(=O)O)nc2c(OC)c(C(N)=O)ccc21 [Example 51, 2-(5-Carbamoyl-1-(2-(5-carbamoyl-2-(2-carboxy-4-cyanophenyl)-4-methoxy-1H-benzo[d]imidazol-1-yl)ethyl)-4-methoxy-1H-benzo[d]imidazol-2-yl)-5-cyanobenzoic acid] | – | – | – | – | -0.85 | 1.6 | – | –
